These results are taken from patent US11866689B2, “Splice-switching oligonucleotides and methods of use” (Duke University, priority 2018, dated 2024).

Assay type in all cases: cell-based
In data set [1] the test system is full length AR. In words: Full length AR level after morpholino treatment of LN95 cells (RT-qPCR). Conditions: 0-2.5 uM in complete media, 72 h, FIG. 6B. On the procedure: (§1) Briefly, LN95 cells were seeded in a 12 well plate in complete media (RPMI+10% charcoal stripped FBS) at 250,000 cells per well and incubated at 37 C and 5% CO2 in a humidified incubator. After 24 hours, 0, 0.5, 1, 1.5, 2, or 2.5 uM of ARv7 morph 1 morpholino or control morpholino was diluted in complete media and added to each well. After 72 additional hours of incubation, media was removed and cells were collected in RNA lysis buffer.
(§2) RNA was extracted using the Quick-RNA Miniprep kit (Zymo Research) following manufacturer's protocol. RNA was eluted in water and quantified using a Qubit fluorometer (Thermo Fisher). Reverse transcription (RT) reactions were performed using the ABI High Capacity cDNA Reverse Transcription Kit (Thermo Fisher) using 1 ug of RNA. RT reactions were incubated following manufacturer's protocol in a SimpliAmp thermocycler (Life Technologies). […] Fold Change from Scramble was calculated using the 2^-ΔΔCT method with TBP as the housekeeping gene and the control morpholino as the treatment control.
A general note: In qPCR the cycle at which signal appears reflects the starting amount.

The subject of data set [2] is ARv7. In words: ARv7 level after morpholino treatment of LN95 cells (RT-qPCR). The note with it: 0-2.5 uM in complete media, 72 h, FIG. 6A. As for the experimental part:
as §1, §2

The test system of data set [3] is ARv7. The experiment in a line: ARv7 level after SSO transfection of prostate cancer cells (RT-qPCR, Western blot). Conditions: for ARv7 (fold change from Scramble): vs Scramble/Scr control.
Method: A total of 6.25, 25, 100, or 400 nM of ARv7 SSO-6, 100 nM of ARv7 SSO-6ext, or 100 or 400 nM of Scrambled SSO was diluted in Opti-MEM and mixed with 2 uL Dharmafect 1 (LN95) or RNAiMax (VCaP) diluted in Opti-MEM for a total of 200 uL. The SSO-transfection reagent mixtures were incubated for 10 minutes at room temperature followed by plating in a 12 well plate. A total of 250,000 cells diluted in 800 uL Optimem were seeded atop the SSO-transfection reagent mixtures and incubated for 4 hours at 37° C. and 5% CO2 in a humidified incubator. Media was replaced with complete media after 4 hours (RPMI+10% charcoal stripped FBS for LN95 cells and DMEM+10% FBS for VCaP cells). After an additional 72 or 96 hours of incubation, media was removed and cells were collected in RNA lysis buffer or RIPA buffer containing protease inhibitor (Thermo Fisher).
RNA was extracted using the Quick-RNA Miniprep kit (Zymo Research) following manufacturer's protocol. RNA was eluted in water and quantified using a Qubit fluorometer (Thermo Fisher). Reverse transcription (RT) reactions were performed using the ABI High Capacity cDNA Reverse Transcription Kit (Thermo Fisher) using 1 ug of RNA. RT reactions were incubated following manufacturer's protocol in a SimpliAmp thermocycler (Life Technologies). […] RT-qPCR was run on a ViiA7 Real-Time PCR System (Applied Biosystems) using the following conditions: 95° C. for 2 minutes, 40×(95 C for 1 second, 60° C. for 20 seconds). Fold Change from Scramble was calculated using the 2^-ΔΔCT method with TBP as the housekeeping gene and the Scrambled SSO as the treatment control.
RNA was extracted using the Quick-RNA Miniprep kit (Zymo Research) following manufacturer's protocol. RNA was eluted in water and quantified using a Qubit fluorometer (Thermo Fisher). […] Fold Change from Scramble was calculated using the 2^-ΔΔCT method with TBP as the housekeeping gene and the Scrambled SSO as the treatment control.
A further data set has as its system LN95 cells. In words: Prostate cancer cell proliferation (Incucyte % confluence) after SSO transfection. Conditions: 100 nM, transfected twice, 7 days, −/+ enzalutamide, vs Scr, FIG. 4. As for the experimental part:
As depicted in FIG. 4, ARv7 SSO-6 inhibits prostate cancer cell (LN95) proliferation. Briefly, a total of 100 nM of ARv7 SSO-6 or 100 nM of Scrambled SSO was diluted in Opti-MEM and mixed with 2 uL Dharmafect 1 for a total of 200 uL. The SSO-transfection reagent mixtures were incubated for 10 minutes at room temperature followed by plating in a 12 well plate. A total of 250,000 LN95 cells diluted in 800 uL Optimem were seeded atop the SSO-transfection reagent mixtures and incubated for 4 hours at 37 C and 5% CO2 in a humidified incubator. Media was replaced with complete media after 4 hours (RPMI+10% charcoal stripped FBS). 72 hours later cells were lifted using 0.25% trypsin and the transfection procedure was repeated. 4 hours after transfection media was replaced with complete media and cells were gently resuspended by pipetting up and down. Cells were then seeded in to a 96 well plate at 10,000 cells/well and the plate was placed in to the Incucyte S3 live cell imager (Essen Bioscience) and incubated at 37° C. and 5% CO2 for 7 days. % confluence was calculated once per day and fold change from 0 hr was calculated for each time point.

A further data set deals with ARv9. The experiment in a line: ARv9 level after SSO transfection of prostate cancer cells. Conditions: prostate cancer cell lines LN95, VCaP; 6.25-400 nM transfected; vs Scramble/Scr control; FIG. 2. On the procedure:
(§3) For FIGS. 2 and 3, the experimental methods is described briefly. A total of 6.25, 25, 100, or 400 nM of ARv7 SSO-6, 100 nM of ARv7 SSO-[…], or 100 or 400 nM of Scrambled SSO was diluted in Opti-MEM and mixed with 2 uL Dharmafect 1 (LN95) or RNAiMax (VCaP) diluted in Opti-MEM for a total of 200 uL. The SSO-transfection reagent mixtures were incubated for 10 minutes at room temperature followed by plating in a 12 well plate. A total of 250,000 cells diluted in 800 uL Optimem were seeded atop the SSO-transfection reagent mixtures and incubated for 4 hours at 37° C. and 5% CO2 in a humidified incubator. Media was replaced with complete media after 4 hours (RPMI+10% charcoal stripped FBS for LN95 cells and DMEM+10% FBS for VCaP cells). After an additional 72 or 96 hours of incubation, media was removed and cells were collected in RNA lysis buffer or RIPA buffer containing protease inhibitor (Thermo Fisher). […] RNA was eluted in water and quantified using a Qubit fluorometer (Thermo Fisher). […] Fold Change from Scramble was calculated using the 2^-ΔΔCT method with TBP as the housekeeping gene and the Scrambled SSO as the treatment control. Protein samples were quantified using a Bradford assay (Pierce Scientific) and 25 ug of each cell extract was mixed with SDS sample buffer and submitted to SDS-PAGE. […]

In data set [4] the test system is full length AR. In words: Full length AR level after SSO transfection of prostate cancer cells (RT-qPCR, Western blot). Conditions: prostate cancer cell lines LN95, VCaP; 6.25-400 nM transfected; vs Scramble/Scr control; FIG. 2. As for the experimental part: as §3

Turning to “TTGCCAACCCGGAATTTTTCTAGTATGA (all phosphorodiamidate morpholino (PMO)) [ARv7 morph 1]”, the “full length AR” value with full length AR [1] is recorded as “maintenance”. Further, the “ARv7 (fold change from control morpholino)” value with ARv7 [2] is given as “dose-dependent decrease”.
For “mC*mA*mG*mC*mC*mT*mT*mT*mC*mT*mT*mC*mA*mG*mG*mG*mT*mC (CAGCCTTTCTTCAGGGTC; all 2'-O-methyl, all phosphorothioate, T or U not given here) [Arv7 Cons1]”, in the data set on ARv7 [3] (LN95, 12.5, 25, 50 nM transfected, 72 h, vs Scrambled SSO, FIG. 5), the “ARv7 RNA (fold change from Scramble)” value is listed as “decreases ARv7 RNA in a dose-dependent manner”.
As to “mG*mC*mC*mA*mA*mC*mC*mC*mG*mG*mA*mA*mU*mU*mU*mU*mU*mC [ARv7 SSO-6]”, in the data set with LN95 cells, the “prostate cancer cell proliferation (% confluence, fold change from 0 hr)” value is given as “inhibits”. Further, in the data set with ARv9, the ARv9 result is recorded as “maintenance”. Besides, the “ARv7 (fold change from Scramble)” value with ARv7 [3] (prostate cancer cell lines LN95, VCaP, 6.25, 25, 100, 400 nM transfected, 72 or 96 h, FIG. 2) is “dose dependent decrease”. In the data set with full length AR [4], the “full length AR” value is on record as “maintenance”.
On to “mG*mC*mC*mA*mA*mC*mC*mC*mG*mG*mA*mA*mU*mU*mU*mU*mU*mC* mU*mA*mG*mU [ARv7 SSO-6ext]”, for which the “ARv7 (fold change from Scramble)” value in the data set with ARv7 [3] (LN95, 100 nM transfected, FIG. 3) is listed as “decrease”.
